In the test the target is T1, TtADDH (Thermus thermophilus, UniProt Q53WH9).
T1 construct: gene TTHB247; full-length from RIKEN T. thermophilus HB8 expression plasmid set; E. coli Rosetta2 (DE3), heat-treated lysate (70 C, 30 min)
Kind of test: NAD+ reduction at […] nm; HPLC of products. Format: biochemical. Particulars: 0.2 mM NAD+, 0.2 mM CoA, 0.2 mM acetaldehyde; 50 mM HEPES-NaOH pH 7.0, 100 mM KCl, 10 mM MgCl2, 50 C.

T1 sequence (Q53WH9 whole entry): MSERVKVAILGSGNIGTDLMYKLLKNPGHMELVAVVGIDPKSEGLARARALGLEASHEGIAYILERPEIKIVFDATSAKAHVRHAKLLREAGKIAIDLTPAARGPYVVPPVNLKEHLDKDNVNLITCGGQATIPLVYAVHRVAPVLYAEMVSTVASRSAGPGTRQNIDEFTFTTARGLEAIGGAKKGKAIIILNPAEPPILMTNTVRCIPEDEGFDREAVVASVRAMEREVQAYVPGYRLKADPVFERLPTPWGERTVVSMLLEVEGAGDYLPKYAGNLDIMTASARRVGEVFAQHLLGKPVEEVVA

In the case of `CC=O` [acetaldehyde], the “NAD+ reduction at 340 nm; HPLC of products” value is “TtADDH could catalyze the oxidation of acetaldehyde in both CoA-dependent (acetyl-CoA-forming) and CoA-independent”.

These data come from paper PMC3852541, “Construction of an in vitro bypassed pyruvate decarboxylation pathway using thermostable enzyme modules and its application to N-acetylglutamate production” (Microbial Cell Factories, 2013).
